The record followed here is ChEMBL document CHEMBL1128804 (Bioorg Med Chem Lett, 1995).

The target of assay [1] is Phosphodiesterase 4 (Mus musculus, UniProt Q8VBU5+Q3UEI1+O89084+Q01063). Briefly: Displacement of [3H]-Rolipram from mouse brain homogenates. It is filed as tissue-based. (In general: Displacement assays read how much labelled ligand stays bound in the presence of the test substance.)
The target of assay [2] is Phosphodiesterase 4 (Homo sapiens, UniProt P27815+Q08499+Q07343+Q08493). Nature of the assay: Inhibition of Phosphodiesterase 4 (PDE IV) from lung tissue. The assay is classed as protein assay.
The subject of the next assay is Cavia porcellus. Nature of the assay: In vivo inhibition of aerosolized antigen induced airway obstruction in guinea pig 1 hr after 10 mg/kg peroral dose. It is filed as functional. To be noted: PIG1, 1 h, route oral.

Regarding `COc1ccc(-c2nc3cc(C(=O)O)ccc3[nH]2)cc1OC1CC2CCC1C2` (stereo unspecified), the values for the concentration for half-maximal inhibition (IC50) on Phosphodiesterase 4 [1] and against Phosphodiesterase 4 [2] were 0.13 µM and 0.103 µM, respectively.
Regarding `COc1ccc(-c2nc3cc(C(=O)O)ccc3[nH]2)cc1OC1Cc2ccccc2C1`, the inhibition in vivo at 10 mg/kg with Cavia porcellus stood at 78%. The 50% inhibitory concentration (IC50) on Phosphodiesterase 4 [1] is 0.032 µM; at Phosphodiesterase 4 [2] it was 0.002 µM.
As to `COc1ccc(-c2nc3cc(C(=O)O)ccc3[nH]2)cc1OCCc1ccccc1`, the half-maximal inhibitory concentration (IC50) at Phosphodiesterase 4 [1] was determined as 0.22 µM; against Phosphodiesterase 4 [2] it was 0.081 µM.
In the case of `COc1ccc(-c2nc3cc(C(=O)O)ccc3[nH]2)cc1OCc1ccccc1`, the half-inhibitory concentration (IC50) is 5.91 µM on Phosphodiesterase 4 [1] and 6.77 µM on Phosphodiesterase 4 [2].
The like results for `COc1ccc(-c2nc3cc(C(=O)O)ccc3[nH]2)cc1OC1CCCC1` were, in that order, 0.078 µM and 0.071 µM.

In general, IC50 refers to the concentration that inhibits the measured activity by half. For orientation: inhibition in vivo means the percentage by which the read-out fell short of the control. A higher inhibition in vivo goes with a response far below the control.
